From US6165441A, “Method of diagnosis and photodynamic therapy of tumours” (Nycomed Amersham Sorin SRL, priority 1995, dated 2000)

Assays:
MS-2 fibrosarcoma = test: Tumour accumulation and tumour/muscle radioactivity ratio; assay type: in vivo, Balb/c mice; conditions: for Kinetics of tumour uptake and clearance, ^131 I--ZnPc versus ZnPc: mouse, in vivo; for Recovery from TUMOUR: average of three mice ± s.d.
Protocol: (§1) Experimental tests were carried out in Balb/c mice affected by a MS-2 fibrosarcoma. This tumour model had been previously used for extensive PDT studies with unlabelled ZnPc.
(§2) For tumour implantation 2×10^5 cells in 0.2 ml of sterile physiological solution were intramuscularly injected into the right hind leg of female Balb/c mice having a body wt. of 20-22 g. All the experiments were started on the eighth day after tumour implantation, when the external diameter was ca. 0.8 cm and no detectable spontaneous tumour necrosis had generally occurred. When necessary, mice were anesthetized by i.p. injection of Ketalar (150 mg/kg).
(§3) Balb/c mice bearing the MS-2 fibrosarcoma were injected in the tail vein with ^131 I--ZnPc at does between 0.024 and 0.096 MBq/g. At predetermined times up to 24 hours after injection, the whole body of the mice was scanned with a Gamma Camera General Electric Stargem in order to ensure the radioactivity levels at different anatomical sites. Then, the mice were sacrificed by prolonged exposure to ether vapours; the blood, tumour and selected normal tissues (muscle, skin, lung, liver, spleen, kidney, brain) were rapidly taken. The blood was centrifuged to remove the erythrocytes and the radioactivity in the plasma (100 μl) was analyzed. Moreover, tissues were washed with physiological solution, weighed, introduced into RIA test tubes and centrifuged for 10 minutes and 2000 g. The radioactivity was collected for 1 minute by a gamma counter (Packard Selektronik Design). A different group of mice was injected as above described, sacrificed at 3 hours, 15 hours, 24 hours, 48 hours and 96 hours after injection (three mice at each time) and the radioactivity in plasma and tissues homogenates was determined.
FIG. 2 is an histogram showing the ratio between the tumour/muscle radioactivity of ^131 I--ZnPc at different times after injection of 0.096 MBq/g ^131 I--ZnPc in DPPC liposomes; averaged ratios for three independently analyzed mice±s.d..
FIG. 3 is an histogram showing the ratio between the tumour/muscle radioactivity of ^131 I--ZnPc at different concentrations at 24 hours after injection of ^131 I--ZnPc in DPPC liposomes; averaged ratio for three independently analyzed mice±s.d..

tumour = conditions: cited from earlier work
[1] = In vivo whole body Gamma Camera scanning of radioactivity distribution; set-up: species or system Balb/c mice
Protocol: as §3

[2] = Clearance of ^131 I--ZnPc from serum; assay type: in vivo, Balb/c mice
Protocol: as §3

[3] = Biodistribution of ^131 I radioactivity in excised tissues after i.v. injection (pharmacokinetic studies, gamma counter); assay type: in vivo, Balb/c mice; conditions: for Recovery from BRAIN / Recovery from KIDNEY / Recovery from LIVER / Recovery from LUNG / Recovery from MUSCLE / Recovery from SPLEEN: 0.096 MBq/g in DPPC liposomes, average of three mice ± s.d.
Protocol: as §1, §2
^131 I--Zn(II)-phthalocyanine was incorporated into small unilamellar vesicles of DPPC following the procedure described by Valduga et al., J.Inorg.Biochem. (1987), 25-59.
as §3

[4] = i.v. 0.096 MBq/g in DPPC liposomes

For `[Zn+2].c1ccc2c(c1)-c1nc-2nc2[n-]c(nc3nc([n-]c4nc(n1)-c1ccccc1-4)-c1ccccc1-3)c1ccccc21` [ZnPc, Zn(II)-phthalocyanine], the “Kinetics of tumour uptake and clearance, ^131 I--ZnPc versus ZnPc” value (MS-2 fibrosarcoma) is given as “quite similar”, the “Selectivity of tumour accumulation” value (tumour; in vivo) is given as “enhanced selectivity of tumour accumulation” and the “Lowest phototherapeutically active dose” value (tumour; liposome-incorporated, doses as low as) is given as 0.15 mg/kg body wt.

For “^131 I--Zn(II)-phthalocyanine [^131 I--ZnPc]”, the “Localization of radioactivity in the whole animal” value ([1]; at all examined time intervals) was “strictly localized at the level of liver and tumour with no general delocalization throughout the organism”, the “Dissociation of ^131 I from the phthalocyanine in vivo” value ([1]; inferred from whole-animal distribution) was “unlikely that ^131 I is dissociated from the phthalocyanine to any significant extent” and the “Time of maximum tumour-to-muscle concentration ratio” value (MS-2 fibrosarcoma; 0.096 MBq/g in DPPC liposomes, FIG. 2) was 15 h. For the same compound, the “Tumour-to-muscle concentration ratio over the studied time interval” value (MS-2 fibrosarcoma; 0.096 MBq/g in DPPC liposomes, after 15 hours, FIG. 2) was “remains at an essentially constant level throughout the studied time interval”, the “Recovery from TUMOUR” value (MS-2 fibrosarcoma; 3 h, 0.096 MBq/g in DPPC liposomes) was 140.3 ± 38.6 CPM/mg of tissue and the “Recovery from TUMOUR” value (MS-2 fibrosarcoma; 15 h, 0.096 MBq/g in DPPC liposomes) was 182.7 ± 16.0 CPM/mg of tissue. The “Recovery from TUMOUR” value (MS-2 fibrosarcoma; 24 h, 0.096 MBq/g in DPPC liposomes) was 212.9 ± 8.6 CPM/mg of tissue, the “Effect of injected dose on tumour/muscle ratio” value (MS-2 fibrosarcoma; 24 hours after administration, 0.024 to 0.096 MBq/g, FIG. 3) was “affected to a minor extent by the injected dose” and the “Recovery from TUMOUR” value (MS-2 fibrosarcoma; 48 h, 0.096 MBq/g in DPPC liposomes) was 180.7 CPM/mg of tissue. The “Recovery from TUMOUR” value (MS-2 fibrosarcoma; 96 h, 0.096 MBq/g in DPPC liposomes) was 162.2 ± 19.5 CPM/mg of tissue, the Tumour localization (MS-2 fibrosarcoma; ^131 I label) was “efficient and selective tumour localizer” and the “Time of maximal tumour concentration” value (MS-2 fibrosarcoma; after ca.) was “ca. 24 hours”. The “Rate of uptake by the tumour” value (MS-2 fibrosarcoma; compared with several normal tissues) was “relatively low rate of uptake by the tumour as compared with several normal tissues”, the “Time of maximum accumulation in tumour” value (MS-2 fibrosarcoma; [4]) was 24 h and the “Kinetics of tumour uptake and clearance, ^131 I--ZnPc versus ZnPc” value (MS-2 fibrosarcoma) was “quite similar”. For the same compound, the “Selectivity of tumour targeting (tumour/muscle ratio) compared with ZnPc” value (MS-2 fibrosarcoma; tumour/muscle ratios of phthalocyanine recovery) was “almost twice higher selectivity of tumour targeting”, the “Clearance rate from serum” value [2, 4] was “particularly fast during the initial 15 hours after administration” and the “Elimination from mouse serum” value ([2]; i.v. 0.096 MBq/g in DPPC liposomes, within 96 hours) was “almost completely eliminated from mouse serum within 96 hours”. For the same compound, the “Clearance profile from the serum” value ([2]; mouse, in vivo) was “apparently polyphasic clearance from the serum”, the “Initial radioactivity disappearing from serum” value ([2]; within the initial 24 hours post-injection, almost) was about 80% and the “Recovery from BRAIN” value ([3]; 3 h) was 11.7 ± 0.1 CPM/mg of tissue. The “Recovery from KIDNEY” value ([3]; 3 h) was 156.9 ± 9.7 CPM/mg of tissue, the “Recovery from LIVER” value ([3]; 3 h) was 984.2 ± 15.7 CPM/mg of tissue and the “Recovery from LUNG” value ([3]; 3 h) was 168.3 ± 5.6 CPM/mg of tissue. For the same compound, the “Recovery from MUSCLE” value ([3]; 3 h) was 41.1 ± 3.6 CPM/mg of tissue, the “Recovery from SPLEEN” value ([3]; 3 h) was 600.9 ± 8.1 CPM/mg of tissue and the “Recovery from BRAIN” value ([3]; 15 h) was 5.2 ± 1.5 CPM/mg of tissue. For the same compound, the “Recovery from KIDNEY” value ([3]; 15 h) was 84.4 ± 8.4 CPM/mg of tissue, the “Recovery from LIVER” value ([3]; 15 h) was 871.1 ± 146.8 CPM/mg of tissue and the “Recovery from LUNG” value ([3]; 15 h) was 76.2 ± 31.4 CPM/mg of tissue. For the same compound, the “Recovery from MUSCLE” value ([3]; 15 h) was 22.4 ± 9.3 CPM/mg of tissue, the “Recovery from SPLEEN” value ([3]; 15 h) was 503.7 ± 46.8 CPM/mg of tissue and the “Recovery from BRAIN” value ([3]; 24 h) was 4.3 ± 0.6 CPM/mg of tissue. For the same compound, the “Recovery from KIDNEY” value ([3]; 24 h) was 77.3 ± 11.2 CPM/mg of tissue, the “Recovery from LIVER” value ([3]; 24 h) was 1043.7 ± 72.5 CPM/mg of tissue and the “Recovery from LUNG” value ([3]; 24 h) was 83.3 ± 12.4 CPM/mg of tissue. For the same compound, the “Recovery from MUSCLE” value ([3]; 24 h) was 23.7 ± 2.0 CPM/mg of tissue, the “Recovery from SPLEEN” value ([3]; 24 h) was 635.1 ± 65.8 CPM/mg of tissue and the “Recovery from BRAIN” value ([3]; 48 h) was 3.4 CPM/mg of tissue. For the same compound, the “Recovery from KIDNEY” value ([3]; 48 h) was 59.4 CPM/mg of tissue, the “Recovery from LIVER” value ([3]; 48 h) was 849.1 ± 90.3 CPM/mg of tissue and the “Recovery from LUNG” value ([3]; 48 h) was 73.4 CPM/mg of tissue. For the same compound, the “Recovery from MUSCLE” value ([3]; 48 h) was 22.3 CPM/mg of tissue, the “Recovery from SPLEEN” value ([3]; 48 h) was 549.7 CPM/mg of tissue and the “Recovery from BRAIN” value ([3]; 96 h) was 2.0 ± 0.4 CPM/mg of tissue. For the same compound, the “Recovery from KIDNEY” value ([3]; 96 h) was 61.6 ± 16.8 CPM/mg of tissue, the “Recovery from LIVER” value ([3]; 96 h) was 831.9 ± 52.5 CPM/mg of tissue and the “Recovery from LUNG” value ([3]; 96 h) was 52.1 ± 6.9 CPM/mg of tissue. The “Recovery from MUSCLE” value ([3]; 96 h) was 15.8 ± 2.5 CPM/mg of tissue, the “Recovery from SPLEEN” value ([3]; 96 h) was 413.0 ± 42.7 CPM/mg of tissue and the “Amounts recovered from muscle” value ([3]; at all times) was “small amounts of phthalocyanine are recovered from muscle at all times”. The “Elimination from liver and spleen” value ([3]; during the initial four days) was “relatively slow elimination at least during the initial four days”, the “Amounts recovered from brain” value ([3]; i.v. in DPPC liposomes) was “minimal amounts” and the “Levels in kidneys” value ([3]; i.v. in DPPC liposomes) was “comparatively low levels observed in kidneys”. For the same compound, the “Recovery in the liver and spleen” value ([3]; i.v. in DPPC liposomes) was “very high in the liver and spleen”, the “Toxic effects on the central nervous system” value ([3]; inferred from minimal brain recovery) was “unlikely” and the “Amount cleared via the kidneys” value ([3]; main elimination via bile-gut pathway) was “only minor amounts cleared via the kidneys”. The “Amount accumulated by liver and spleen” value ([3]; mouse, in vivo) was “large amount accumulated by liver and spleen”, the “Accumulation in the liver compared with ZnPc” value ([3]; short post-injection times) was “greater accumulation” and the “Liver concentration relative to tumour” value ([3]; short post-injection times) was “ca. 7 fold”.
